# Test results: PubChem BioAssay AID2060509 (Molecular Pharmacology Branch, DTP, NCI, 2025)
# pIC50: −log10 of the molar value.
# Test system: 485176-168-R4-J1-PDC spheroids with HUVEC/MSC, viability
# Experiment: Anticancer human tumor 485176-168-R4-J1-PDC patient-derived pancreatic adenocarcinoma cell line growth inhibition [GQUAD]
# Conditions: for pIC50: curve of first compound; for viability, T/C: stronger effect = lower value
# Procedure, shortened: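 Viability of tumor cells grown as complex spheroids with endothelial and stromal cells, exposed to drug combinations. Top concentration at or near clinical Cmax (else 10 microM), diluted in half-log increments.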
# [1] = second compound 0.0316 µM, first compound 0.0316 µM
# [2] = second compound 0.0316 µM, first compound 0.1 µM
# [3] = second compound 0.0316 µM, first compound 0.316 µM
# [4] = second compound 0.0316 µM, first compound 1 µM
# [5] = second compound 0.0316 µM, first compound 3.16 µM
# [6] = second compound 0.0316 µM, first compound 10 µM
# [7] = second compound 0.1 µM, first compound 0.0316 µM
# [8] = second compound 0.1 µM, first compound 0.1 µM
# [9] = second compound 0.1 µM, first compound 0.316 µM
# [10] = second compound 0.1 µM, first compound 1 µM
# [11] = second compound 0.1 µM, first compound 3.16 µM
# [12] = second compound 0.1 µM, first compound 10 µM
# [13] = second compound 0.316 µM, first compound 0.0316 µM
# [14] = second compound 0.316 µM, first compound 0.1 µM
# [15] = second compound 0.316 µM, first compound 0.316 µM
# [16] = second compound 0.316 µM, first compound 1 µM
# [17] = second compound 0.316 µM, first compound 3.16 µM
# [18] = second compound 0.316 µM, first compound 10 µM
# [19] = second compound 1 µM, first compound 0.0316 µM
# [20] = second compound 1 µM, first compound 0.1 µM
# [21] = second compound 1 µM, first compound 0.316 µM
# [22] = second compound 1 µM, first compound 1 µM
# [23] = second compound 1 µM, first compound 3.16 µM
# [24] = second compound 1 µM, first compound 10 µM
# [25] = second compound 3.16 µM, first compound 0.0316 µM
# [26] = second compound 3.16 µM, first compound 0.1 µM
# [27] = second compound 3.16 µM, first compound 0.316 µM
# [28] = second compound 3.16 µM, first compound 1 µM
# [29] = second compound 3.16 µM, first compound 3.16 µM
# [30] = second compound 3.16 µM, first compound 10 µM
# [31] = second compound 10 µM, first compound 0.0316 µM
# [32] = second compound 10 µM, first compound 0.1 µM
# [33] = second compound 10 µM, first compound 0.316 µM
# [34] = second compound 10 µM, first compound 1 µM
# [35] = second compound 10 µM, first compound 3.16 µM
# [36] = second compound 10 µM, first compound 10 µM
# 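Note: spheroids exposed to compounds for seven days before readout.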
# 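Throughout, for viability, T/C: percent viability relative to DMSO vehicle control wells as 100%.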
compound,measurement,setting,value
C#Cc1c(F)ccc2cc(O)cc(-c3ncc4c(N5CC6CCC(C5)N6)nc(OCC56CCCN5CC(F)C6)nc4c3F)c12 (stereo not drawn) + Cc1cnc(CNC(=O)c2c(=O)c3ccc(N4CCCN(C)CC4)nc3n3c2sc2ccccc23)cn1,pIC50,second compound 0.0316 µM,< 5.00
same,pIC50,second compound 0.1 µM,< 5.00
same,pIC50,second compound 0.316 µM,< 5.00
same,pIC50,second compound 1 µM,> 7.50
same,pIC50,second compound 3.16 µM,> 7.50
same,pIC50,second compound 10 µM,> 7.50
same,"viability, T/C",[1],97%
same,"viability, T/C",[2],89.9%
same,"viability, T/C",[3],97.7%
same,"viability, T/C",[4],81%
same,"viability, T/C",[5],91.9%
same,"viability, T/C",[6],87.8%
same,"viability, T/C",[7],78.4%
same,"viability, T/C",[8],80%
same,"viability, T/C",[9],68.4%
same,"viability, T/C",[10],72.3%
same,"viability, T/C",[11],72.8%
same,"viability, T/C",[12],76.3%
same,"viability, T/C",[13],59.3%
same,"viability, T/C",[14],60%
same,"viability, T/C",[15],62.3%
same,"viability, T/C",[16],61.6%
same,"viability, T/C",[17],63.3%
same,"viability, T/C",[18],50.9%
same,"viability, T/C",[19],45.2%
same,"viability, T/C",[20],50.1%
same,"viability, T/C",[21],48.6%
same,"viability, T/C",[22],50.3%
same,"viability, T/C",[23],45.7%
same,"viability, T/C",[24],50.5%
same,"viability, T/C",[25],44%
same,"viability, T/C",[26],44.7%
same,"viability, T/C",[27],44.4%
same,"viability, T/C",[28],38.1%
same,"viability, T/C",[29],48.7%
same,"viability, T/C",[30],44.6%
same,"viability, T/C",[31],40.5%
same,"viability, T/C",[32],40.4%
same,"viability, T/C",[33],36.4%
same,"viability, T/C",[34],35.1%
same,"viability, T/C",[35],37.5%
same,"viability, T/C",[36],37.4%
C=CCn1c(=O)c2cnc(Nc3ccc(N4CCN(C)CC4)cc3)nc2n1-c1cccc(C(C)(C)O)n1 + Cc1cnc(CNC(=O)c2c(=O)c3ccc(N4CCCN(C)CC4)nc3n3c2sc2ccccc23)cn1,pIC50,second compound 0.0316 µM,6.63
same,pIC50,second compound 0.1 µM,6.78
same,pIC50,second compound 0.316 µM,6.91
same,pIC50,second compound 1 µM,7.44
same,pIC50,second compound 3.16 µM,> 7.50
same,pIC50,second compound 10 µM,> 7.50
same,"viability, T/C",[1],81.7%
same,"viability, T/C",[2],64.8%
same,"viability, T/C",[3],47.2%
same,"viability, T/C",[4],11.5%
same,"viability, T/C",[5],7.79%
same,"viability, T/C",[6],3.94%
same,"viability, T/C",[7],69.3%
same,"viability, T/C",[8],70.4%
same,"viability, T/C",[9],24.1%
same,"viability, T/C",[10],10.6%
same,"viability, T/C",[11],6.45%
same,"viability, T/C",[12],3.77%
same,"viability, T/C",[13],64%
same,"viability, T/C",[14],55.9%
same,"viability, T/C",[15],25%
same,"viability, T/C",[16],9.59%
same,"viability, T/C",[17],6.42%
same,"viability, T/C",[18],3.31%
same,"viability, T/C",[19],52%
same,"viability, T/C",[20],36.4%
same,"viability, T/C",[21],22.1%
same,"viability, T/C",[22],10.2%
same,"viability, T/C",[23],5.94%
same,"viability, T/C",[24],4.18%
same,"viability, T/C",[25],47.6%
same,"viability, T/C",[26],40.1%
same,"viability, T/C",[27],18.2%
same,"viability, T/C",[28],9.87%
same,"viability, T/C",[29],4.56%
same,"viability, T/C",[30],5.42%
same,"viability, T/C",[31],34.4%
same,"viability, T/C",[32],37.5%
same,"viability, T/C",[33],24.6%
same,"viability, T/C",[34],10.6%
same,"viability, T/C",[35],0.49%
same,"viability, T/C",[36],0.25%
CC(C)(O)C1CCC(Nc2ccc3ncc(-c4cccc(C(F)(F)F)c4)n3n2)CC1 (stereo not drawn) + Cc1cnc(CNC(=O)c2c(=O)c3ccc(N4CCCN(C)CC4)nc3n3c2sc2ccccc23)cn1,pIC50,second compound 0.0316 µM,< 5.00
same,pIC50,second compound 0.1 µM,5.36
same,pIC50,second compound 0.316 µM,5.86
same,pIC50,second compound 1 µM,6.43
same,pIC50,second compound 3.16 µM,7.40
same,pIC50,second compound 10 µM,> 7.50
same,"viability, T/C",[1],94.1%
same,"viability, T/C",[2],81.3%
same,"viability, T/C",[3],97.5%
same,"viability, T/C",[4],67%
same,"viability, T/C",[5],49.7%
same,"viability, T/C",[6],51.6%
same,"viability, T/C",[7],64.5%
same,"viability, T/C",[8],71.7%
same,"viability, T/C",[9],57.6%
same,"viability, T/C",[10],65.8%
same,"viability, T/C",[11],47.2%
same,"viability, T/C",[12],44.8%
same,"viability, T/C",[13],57.3%
same,"viability, T/C",[14],55.1%
same,"viability, T/C",[15],58.9%
same,"viability, T/C",[16],54.1%
same,"viability, T/C",[17],38.4%
same,"viability, T/C",[18],39.7%
same,"viability, T/C",[19],49.2%
same,"viability, T/C",[20],48.9%
same,"viability, T/C",[21],54%
same,"viability, T/C",[22],45.5%
same,"viability, T/C",[23],31.4%
same,"viability, T/C",[24],36.2%
same,"viability, T/C",[25],52.5%
same,"viability, T/C",[26],45%
same,"viability, T/C",[27],43.3%
same,"viability, T/C",[28],42.8%
same,"viability, T/C",[29],25.2%
same,"viability, T/C",[30],15.8%
same,"viability, T/C",[31],43.4%
same,"viability, T/C",[32],38.8%
same,"viability, T/C",[33],41.6%
same,"viability, T/C",[34],37.9%
same,"viability, T/C",[35],0.55%
same,"viability, T/C",[36],0.23%
COc1ncnc(C2CC2)c1-c1ncc2cnn(Cc3ccc(-c4nc(C(F)(F)F)cn4C(C)C)cc3)c2n1 + Cc1cnc(CNC(=O)c2c(=O)c3ccc(N4CCCN(C)CC4)nc3n3c2sc2ccccc23)cn1,pIC50,second compound 0.0316 µM,< 5.00
same,pIC50,second compound 0.1 µM,< 5.00
same,pIC50,second compound 0.316 µM,< 5.00
same,pIC50,second compound 1 µM,> 7.50
same,pIC50,second compound 3.16 µM,> 7.50
same,pIC50,second compound 10 µM,> 7.50
same,"viability, T/C",[1],102%
same,"viability, T/C",[2],83.6%
same,"viability, T/C",[3],88.9%
same,"viability, T/C",[4],89.7%
same,"viability, T/C",[5],107%
same,"viability, T/C",[6],83.7%
same,"viability, T/C",[7],77.3%
same,"viability, T/C",[8],86.8%
same,"viability, T/C",[9],76.8%
same,"viability, T/C",[10],66.2%
same,"viability, T/C",[11],67%
same,"viability, T/C",[12],81%
same,"viability, T/C",[13],54.6%
same,"viability, T/C",[14],65.4%
same,"viability, T/C",[15],56.4%
same,"viability, T/C",[16],73.7%
same,"viability, T/C",[17],61.6%
same,"viability, T/C",[18],62.9%
same,"viability, T/C",[19],50.4%
same,"viability, T/C",[20],44.1%
same,"viability, T/C",[21],57.7%
same,"viability, T/C",[22],52.5%
same,"viability, T/C",[23],58.3%
same,"viability, T/C",[24],54.9%
same,"viability, T/C",[25],45.1%
same,"viability, T/C",[26],47.6%
same,"viability, T/C",[27],47%
same,"viability, T/C",[28],40.4%
same,"viability, T/C",[29],43.8%
same,"viability, T/C",[30],47%
same,"viability, T/C",[31],36.1%
same,"viability, T/C",[32],47.7%
same,"viability, T/C",[33],40.3%
same,"viability, T/C",[34],34.4%
same,"viability, T/C",[35],40.5%
same,"viability, T/C",[36],39.6%
